Data from ChEMBL document CHEMBL4007389, “Discovery and evaluation of inhibitors to the immunosuppressive enzyme indoleamine 2,3-dioxygenase 1 (IDO1): Probing the active site-inhibitor interactions” (Eur J Med Chem, 2017).
pIC50: −log10 of the molar value.

Experiments:
[1] = Cytotoxicity against mouse LLTC cells assessed as reduction in cell viability after 24 hrs by MTT assay; assay type: cell-based; conditions: read-out: LC50
[2] = target: T1, Indoleamine 2,3-dioxygenase 1 (Homo sapiens, UniProt P14902); assay: Inhibition of full length recombinant human His-tagged IDO1 expressed in mouse LLTC cells using L-tryptophan as substrate after 24 hrs in presence of GSH; assay type: cell-based
Target sequence in this assay (P14902 whole entry): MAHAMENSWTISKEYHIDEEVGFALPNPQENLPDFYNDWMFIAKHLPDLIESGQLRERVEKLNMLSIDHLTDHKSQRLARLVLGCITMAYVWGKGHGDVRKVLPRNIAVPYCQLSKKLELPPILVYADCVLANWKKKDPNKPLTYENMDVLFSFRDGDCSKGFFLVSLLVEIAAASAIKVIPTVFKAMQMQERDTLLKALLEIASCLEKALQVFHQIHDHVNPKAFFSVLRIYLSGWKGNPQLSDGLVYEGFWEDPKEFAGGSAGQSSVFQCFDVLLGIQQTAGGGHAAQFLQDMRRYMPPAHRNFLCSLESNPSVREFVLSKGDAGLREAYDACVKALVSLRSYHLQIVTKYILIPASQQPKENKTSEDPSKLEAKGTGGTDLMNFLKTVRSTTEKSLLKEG

[3] = target: Indoleamine 2,3-dioxygenase 1 (Homo sapiens, UniProt P14902, S167A)
[4] = target: T1, Indoleamine 2,3-dioxygenase 1; assay: Inhibition of recombinant human IDO1 expressed in bacterial expression system using L-Tryptophan as substrate after 25 mins in presence of GSH and tween20 by fluorescence assay
Target sequence in this assay (P14902 whole entry): as above

Homo sapiens = species: Homo sapiens; assay: Selectivity ratio of IC50 for recombinant human IDO1 S167A mutant expressed in Escherichia coli SG13009(pREP4) to IC50 for recombinant human IDO1 expressed in bacterial expression system
[5] = target: T1, Indoleamine 2,3-dioxygenase 1; assay: Inhibition of full length recombinant human His-tagged IDO1 expressed in mouse LLTC cells using L-tryptophan as substrate after 24 hrs; assay type: cell-based
Target sequence in this assay (P14902 whole entry): as above

[6] = target: T1, Indoleamine 2,3-dioxygenase 1; assay: Inhibition of recombinant human IDO1 expressed in bacterial expression system using L-Tryptophan as substrate after 25 mins in absence of GSH and presence of tween20 by fluorescence assay
Target sequence in this assay (P14902 whole entry): as above

[7] = target: T1, Indoleamine 2,3-dioxygenase 1; assay: Inhibition of recombinant human IDO1 expressed in bacterial expression system using L-Tryptophan as substrate after 25 mins in absence of GSH and tween20 by fluorescence assay
Target sequence in this assay (P14902 whole entry): as above

[8] = target: T1, Indoleamine 2,3-dioxygenase 1; conditions: 40 uM
Target sequence in this assay (P14902 whole entry, looked up): as the sequence (P14902 whole entry) above

LLTC cell line = assay: Cytotoxicity against mouse LLTC cells assessed as reduction in cell viability after 24 hrs in presence of GSH by MTT assay; assay type: cell-based

Sequence of Indoleamine 2,3-dioxygenase 1 (Homo sapiens, UniProt P14902, S167A) (P14902 whole entry S167A): as the sequence (P14902 whole entry) above, with S167A counted along it

Oc1nccc(SCc2ccc(Cl)cc2Cl)n1 showed a CC50 at 24 h [1] greater than 117 µM, a pIC50 [2] of 5.52 to 6.70 and a pIC50 [3] of 4.70. For the same compound, the pIC50 [4] was 6.12, the Ratio IC50 (Homo sapiens) was 3 and the pIC50 [5] was 5.36. For the same compound, the pIC50 [6] was 5.12, the pIC50 [7] was 5.37 and the inhibition [8] was less than 25%. For the same compound, the Activity (LLTC cell line) was “Non-Toxic”.
